Experiments:
Assay type in all cases: functional
EKVX = test: Growth inhibition of human EKVX cells assessed as cell growth at 0.01 uM incubated for 48 hrs by sulforhodamine B assay relative to control; conditions: read-out: Activity
HOP-62 [1] = test: Growth inhibition of human HOP-62 cells assessed as cell growth at 0.01 uM incubated for 48 hrs by sulforhodamine B assay relative to control; conditions: read-out: Activity
COLO 205 = test: Growth inhibition of human COLO 205 cells assessed as cell growth at 0.01 uM incubated for 48 hrs by sulforhodamine B assay relative to control; conditions: read-out: Activity
SNB-75 [2] = test: Growth inhibition of human SNB-75 cells assessed as cell growth at 0.01 uM incubated for 48 hrs by sulforhodamine B assay relative to control; conditions: read-out: Activity
M14 = test: Growth inhibition of human M14 cells assessed as cell growth at 0.01 uM incubated for 48 hrs by sulforhodamine B assay relative to control; conditions: read-out: Activity
DU-145 = test: Growth inhibition of human DU-145 cells assessed as cell growth at 0.01 uM incubated for 48 hrs by sulforhodamine B assay relative to control; conditions: read-out: Activity
BT-549 = test: Growth inhibition of human BT-549 cells assessed as cell growth at 0.01 uM incubated for 48 hrs by sulforhodamine B assay relative to control; conditions: read-out: Activity
K562 = test: Growth inhibition of human K562 cells assessed as cell growth at 0.1 uM incubated for 48 hrs by sulforhodamine B assay relative to control; conditions: read-out: Activity
NCI-H23 = test: Growth inhibition of human NCI-H23 cells assessed as cell growth at 0.1 uM incubated for 48 hrs by sulforhodamine B assay relative to control; conditions: read-out: Activity
NCI-H460 = test: Growth inhibition of human NCI-H460 cells assessed as cell growth at 0.1 uM incubated for 48 hrs by sulforhodamine B assay relative to control; conditions: read-out: Activity
HCC 2998 [3] = test: Growth inhibition of human HCC 2998 cells assessed as cell growth at 0.1 uM incubated for 48 hrs by sulforhodamine B assay relative to control; conditions: read-out: Activity
HCT-15 = test: Growth inhibition of human HCT-15 cells assessed as cell growth at 0.1 uM incubated for 48 hrs by sulforhodamine B assay relative to control; conditions: read-out: Activity
MDA-MB-435 = test: Growth inhibition of human MDA-MB-435 cells assessed as cell growth at 0.1 uM incubated for 48 hrs by sulforhodamine B assay relative to control; conditions: read-out: Activity
UACC-62 = test: Growth inhibition of human UACC-62 cells assessed as cell growth at 0.1 uM incubated for 48 hrs by sulforhodamine B assay relative to control; conditions: read-out: Activity
A498 [4] = test: Growth inhibition of human A498 cells assessed as cell growth at 0.1 uM incubated for 48 hrs by sulforhodamine B assay relative to control; conditions: read-out: Activity
ACHN = test: Growth inhibition of human ACHN cells assessed as cell growth at 0.1 uM incubated for 48 hrs by sulforhodamine B assay relative to control; conditions: read-out: Activity
MDA-MB-468 = test: Growth inhibition of human MDA-MB-468 cells assessed as cell growth at 0.1 uM incubated for 48 hrs by sulforhodamine B assay relative to control; conditions: read-out: Activity
A549 = test: Growth inhibition of human A549/ATCC cells assessed as cell growth at 1 uM incubated for 48 hrs by sulforhodamine B assay relative to control; conditions: read-out: Activity
HCT-116 [5] = test: Growth inhibition of human HCT-116 cells assessed as cell growth at 1 uM incubated for 48 hrs by sulforhodamine B assay relative to control; conditions: read-out: Activity
SF-295 = test: Growth inhibition of human SF-295 cells assessed as cell growth at 1 uM incubated for 48 hrs by sulforhodamine B assay relative to control; conditions: read-out: Activity
SNB-19 = test: Growth inhibition of human SNB-19 cells assessed as cell growth at 1 uM incubated for 48 hrs by sulforhodamine B assay relative to control; conditions: read-out: Activity
LOX IMVI = test: Growth inhibition of human LOX IMVI cells assessed as cell growth at 1 uM incubated for 48 hrs by sulforhodamine B assay relative to control; conditions: read-out: Activity
UACC-257 [6] = test: Growth inhibition of human UACC-257 cells assessed as cell growth at 1 uM incubated for 48 hrs by sulforhodamine B assay relative to control; conditions: read-out: Activity
786-0 = test: Growth inhibition of human 786-0 cells assessed as cell growth at 1 uM incubated for 48 hrs by sulforhodamine B assay relative to control; conditions: read-out: Activity
NCI-H226 = test: Growth inhibition of human NCI-H226 cells assessed as cell growth at 100 uM incubated for 48 hrs by sulforhodamine B assay relative to control; conditions: read-out: Activity
NCI-H322M [7] = test: Growth inhibition of human NCI-H322M cells assessed as cell growth at 100 uM incubated for 48 hrs by sulforhodamine B assay relative to control; conditions: read-out: Activity
HCC 2998 [8] = test: Growth inhibition of human HCC 2998 cells assessed as cell growth at 100 uM incubated for 48 hrs by sulforhodamine B assay relative to control; conditions: read-out: Activity
HCT-116 [9] = test: Growth inhibition of human HCT-116 cells assessed as cell growth at 100 uM incubated for 48 hrs by sulforhodamine B assay relative to control; conditions: read-out: Activity
SNB-75 [10] = test: Growth inhibition of human SNB-75 cells assessed as cell growth at 100 uM incubated for 48 hrs by sulforhodamine B assay relative to control; conditions: read-out: Activity
UACC-257 [11] = test: Growth inhibition of human UACC-257 cells assessed as cell growth at 100 uM incubated for 48 hrs by sulforhodamine B assay relative to control; conditions: read-out: Activity
OVCAR-3 = test: Growth inhibition of human OVCAR-3 cells assessed as cell growth at 100 uM incubated for 48 hrs by sulforhodamine B assay relative to control; conditions: read-out: Activity
HOP-62 [12] = test: Growth inhibition of human HOP-62 cells incubated for 48 hrs by sulforhodamine B assay
NCI-H322M [13] = test: Growth inhibition of human NCI-H322M cells incubated for 48 hrs by sulforhodamine B assay
SK-MEL-28 = test: Growth inhibition of human SK-MEL-28 cells incubated for 48 hrs by sulforhodamine B assay
A498 [14] = test: Growth inhibition of human A498 cells incubated for 48 hrs by sulforhodamine B assay
UO-31 = test: Growth inhibition of human UO-31 cells incubated for 48 hrs by sulforhodamine B assay
[15] = read-out: LC50 (the source's name)
[16] = read-out: pLC50 (the source's name) (converted)

Q: What does the source list for `CC(=O)Nc1cc(CO[Si](C)(C)C(C)(C)C)cc(NC(=O)c2ccc(C(=O)Nc3cccc(NC(=O)CCCN(C)C)c3)cc2)c1`?
A: growth at 0.01 µM (EKVX): 101%; growth at 0.01 µM (HOP-62 [1]): 97%; growth at 0.01 µM (COLO 205): 101%; growth at 0.01 µM (SNB-75 [2]): 93%; growth at 0.01 µM (M14): 97%; growth at 0.01 µM (DU-145): 103%; growth at 0.01 µM (BT-549): 95%; growth at 0.1 µM (K562): 96%; growth at 0.1 µM (NCI-H23): 98%; growth at 0.1 µM (NCI-H460): 99%; growth at 0.1 µM (HCC 2998 [3]): 97%; growth at 0.1 µM (HCT-15): 91%; growth at 0.1 µM (MDA-MB-435): 98%; growth at 0.1 µM (UACC-62): 94%; growth at 0.1 µM (A498 [4]): 62%; growth at 0.1 µM (ACHN): 97%; growth at 0.1 µM (MDA-MB-468): 93%; growth at 1 µM (A549): 100%; growth at 1 µM (HCT-116 [5]): 101%; growth at 1 µM (SF-295): 127%; growth at 1 µM (SNB-19): 101%; growth at 1 µM (LOX IMVI): 94%; growth at 1 µM (UACC-257 [6]): 89%; growth at 1 µM (786-0): 93%; growth at 100 µM (NCI-H226): 87%; growth at 100 µM (NCI-H322M [7]): 74%; growth at 100 µM (HCC 2998 [8]): 93%; growth at 100 µM (HCT-116 [9]): 85%; growth at 100 µM (SNB-75 [10]): 50%; growth at 100 µM (UACC-257 [11]): 81%; growth at 100 µM (OVCAR-3): 105%; GI50 (HOP-62 [12]; read-out: GI50): > 75 µM; CC50 (HOP-62 [12]; [15]): > 75 µM; TGI (HOP-62 [12]; read-out: TGI): > 75 µM; GI50 (HOP-62 [12]; read-out: pGI50 (converted)): > 75.9 µM; CC50 (HOP-62 [12]; [16]): > 75.9 µM; TGI (HOP-62 [12]; read-out: pTGI): > 75.9 µM; GI50 (NCI-H322M [13]; read-out: GI50): > 75 µM; CC50 (NCI-H322M [13]; [15]): > 75 µM; TGI (NCI-H322M [13]; read-out: TGI): > 75 µM; GI50 (NCI-H322M [13]; read-out: pGI50 (converted)): > 75.9 µM; CC50 (NCI-H322M [13]; [16]): > 75.9 µM; TGI (NCI-H322M [13]; read-out: pTGI): > 75.9 µM; GI50 (SK-MEL-28; read-out: GI50): > 75 µM; LC50 (50% lethal concentration) (SK-MEL-28; read-out: LC50): > 75 µM; TGI (SK-MEL-28; read-out: TGI): > 75 µM; GI50 (SK-MEL-28; read-out: pGI50 (converted)): > 75.9 µM; LC50 (50% lethal concentration) (SK-MEL-28; read-out: pLC50 (converted)): > 75.9 µM; TGI (SK-MEL-28; read-out: pTGI): > 75.9 µM; LC50 (concentration giving 50% net cell kill) (A498 [14]; read-out: LC50): > 75 µM; TGI (A498 [14]; read-out: TGI): > 75 µM; LC50 (concentration giving 50% net cell kill) (A498 [14]; read-out: pLC50 (converted)): > 75.9 µM; TGI (A498 [14]; read-out: pTGI): > 75.9 µM; GI50 (UO-31; read-out: GI50): > 75 µM; CC50 (UO-31; [15]): > 75 µM; TGI (UO-31; read-out: TGI): > 75 µM; GI50 (UO-31; read-out: pGI50 (converted)): > 75.9 µM; CC50 (UO-31; [16]): > 75.9 µM; TGI (UO-31; read-out: pTGI): > 75.9 µM
